Experimental data: US20050034187A1, “Modified tet-inducible system for regulation of gene expression in plants” (priority 2000, published 2005)
Entries after “also recorded” stand apart in the source; their conditions may differ.

Assays:
lac repressor = lac repressor (Escherichia coli, UniProt P03023); details: Barkley and Bourgeois, 1980; cited from earlier work
cells = details: cited from earlier work
[1] = tested on: wild type tet Receptor and GUS gene controlled by TripleX promoter (pAC489/pAC499 double transformants); experiment: Induction of the tet system in protoplast assays (GUS fluorescent assay); assay type: cell-based, tobacco; details: for magnitude of derepression (induction of GUS): protoplasts, seventh day of cultivation, FIG. 17
Protocol: Logarithmic scale is used for concentration axis.
Protoplasts were cultivated in the dark at 26° C. […] 100 μl of supernatant was used for the assay.

[2] = tested on: wild type tet Receptor and TripleX-driven GUS gene (pAC489/pAC499 double transformants); experiment: Seed germination test: induction of GUS gene in seedlings; assay type: in vivo, tobacco; details: for inducing activity (GUS reporter gene): seed germination test, FIG. 18
tobacco seedlings = experiment: Visual evaluation of seedlings for toxicity in seed germination test
From the text: The purpose of this experiment was to determine the concentration curve for selected analogs. Seeds of homozygous tobacco carrying wild type tet Receptor and TripleX-driven GUS gene (pAC489/pAC499 double transformants) were germinated in presence of several analogs at different concentrations. Seedlings were visually evaluated for toxicity, collected and assayed. Each point on the graph represents an average of three samples.
Seeds of T2 homozygous tobacco carrying wild type tet Receptor and TripleX-driven GUS gene were germinated in the presence of several new analogs at different concentrations. Seedlings were visually evaluated for toxicity, collected and assayed.
The next step in evaluating the analogs was to determine their respective concentration curve. Seeds of homozygous tobacco carrying wild type tet Receptor and TripleX-driven GUS gene (pAC489/pAC499 double transformants) were germinated in the presence of several analogs at different concentrations. Seedlings were visually evaluated for toxicity, collected and assayed.

[3] = tested on: tetracycline-sensitive bacteria; details: concentrations of 0.3 mg/l and lower; according to supplier; cited from earlier work
Mesophyll protoplasts = experiment: Toxicity of chemicals to protoplasts (division rate); details: FIG. 17
Protocol: Mesophyll protoplasts were isolated from T2 transgenic tobacco carrying both wild type tet Receptor and GUS gene controlled by TripleX promoter (pAC489/pAC499 double transformants) and were cultivated at a concentration of 5×10^4 cells/ml in liquid KM medium supplemented with tet analogs at 2-5 mg/l in the dark at 26° C. Total and divided protoplasts were counted and GUS fluorescent assays were performed on the seventh day of cultivation. Toxicity of chemicals was evaluated by division rate—the number of divisions divided by the total number of viable cells and multiplied by 100. Each point on the graphs represents an average of three samples.
Protoplasts were cultivated in the dark at 26° C. First divisions were usually observed after 36-60 hours of cultivation; second and sometimes third divisions were visible beginning from the fifth day. Total and divided protoplasts were counted and GUS fluorescent assays performed on the seventh day. In all experiments protoplasts were counted in a fixed volume of 2 mm^3 using hemocytometer (Hausser Scientific Partnership). Toxicity of chemicals was evaluated by division rate—the number of divisions divided by the total number of viable cells and multiplied by 100. […] 100 μl of supernatant was used for the assay. […]

[4] = tested on: pAC499 (TripleX/GUS) with pACAG084 ((OCS)3MAS/nTR) or pACAG049 (MAR-(OCS)3MAS/nTR); experiment: Time series of GUS induction in whole rooted plants; assay type: in vivo, tobacco; details: roots, tetracycline 2 mg/l, FIG. 16
Protocol: FIG. 16—Induction of GUS Gene in Double Transformants: Time Series. Time series were run with the best double transformants carrying pAC499 (TripleX/GUS) and either of pACAG084 ((OCS)3MAS/nTR) or pACAG049 (MAR-(OCS)3MAS/nTR). Three weeks-old rooted plants were transferred from agar to magenta boxes with liquid medium and tetracycline 2 mg/l. Tissue samples were regularly taken from roots and assayed for GUS.
Time series were run with the best double transformants carrying pAC499 (TripleX/GUS) and either of pACAG084 ((OCS)3MAS/nTR) or pACAG049 (MAR-(OCS)3MAS/nTR). Three week-old rooted plants were transferred from agar to magenta boxes with liquid medium and tetracycline 2 mg/l. Tissue samples were regularly taken from leaves and roots and assayed for GUS. […] The latter result was consistently observed, as well as, in experiments from the literature.

Chain of lac repressor (P03023 whole entry): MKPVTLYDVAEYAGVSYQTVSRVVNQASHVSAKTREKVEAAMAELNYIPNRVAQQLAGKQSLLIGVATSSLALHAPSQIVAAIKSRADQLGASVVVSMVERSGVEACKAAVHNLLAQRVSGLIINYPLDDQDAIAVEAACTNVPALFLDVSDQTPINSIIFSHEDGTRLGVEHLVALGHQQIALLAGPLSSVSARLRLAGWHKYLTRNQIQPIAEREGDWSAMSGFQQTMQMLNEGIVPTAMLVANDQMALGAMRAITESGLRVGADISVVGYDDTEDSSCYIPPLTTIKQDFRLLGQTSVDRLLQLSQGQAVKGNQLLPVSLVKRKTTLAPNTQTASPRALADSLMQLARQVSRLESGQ

Structure (SMILES): CC(C)S[C@@H]1O[C@H](CO)[C@H](O)[C@H](O)[C@H]1O [IPTG, isopropyl-B-D-thiogalactopyranoside]
- reduction of the affinity of repressor for the operator (lac repressor): 300 fold
- toxicity of the level required to induce a lac repressor system (cells): cytotoxic to cells

Structure (SMILES): Cc1c2c(c(O)c3c(O)cccc13)C(=O)[C@]1(O)C(=O)C(C(N)=O)=C(O)[C@@H](N(C)C)[C@@H]1C2 [1665-56-1, anhydrotetracycline]
- magnitude of derepression (induction of GUS) [1]: not a good derepressing agent; also recorded: able to induce the system
- inducing activity (GUS reporter gene) [2]: negligible induction

Structure (SMILES): CN(C)C1C(=O)C(C(N)=O)=C(O)C2(O)C(=O)C3=C(O)c4c(O)cccc4CC3CC12 (centres unmarked) [95702-03-7, 6-deoxy-6-demethyl tetracycline]
- inducer potency compared with tetracycline ([1]; concentrations of 0.3 mg/l and lower): more potent inducer at concentrations of 0.3 mg/l and lower
- magnitude of derepression (induction of GUS) [1]: the same magnitude of derepression and toxicity as tetracycline
- inducing activity (GUS reporter gene) [2]: higher than that of the industry standard, doxycycline
- induction of the GUS reporter gene ([2]; summary of in vitro tests of several tetracycline analogs): very good induction
- toxicity compared with other inducers (tobacco seedlings; concentration curve experiment, FIG. 19): lower toxicity than doxycycline and tetracycline
- toxicity to tetracycline-sensitive bacteria [3]: not toxic to tetracycline-sensitive bacteria
- toxicity to plant cells (Mesophyll protoplasts): the same magnitude of derepression and toxicity as tetracycline

Structure (SMILES): CN(C)[C@@H]1C(O)=C(C(N)=O)C(=O)[C@@]2(O)C(O)=C3C(=O)c4c(O)cccc4[C@@](C)(O)[C@H]3C[C@@H]12 [tetracycline]
- toxicity evaluation (growth of plantlets) (tobacco seedlings; concentration of 10 mg/l, FIG. 19 experiment): slightly stunted growth of plantlets
- magnitude of induction at maximum [4]: 3.5 fold

Structure (SMILES): CN(C)C1C(=O)C(C(N)=O)=C(O)C2(O)C(=O)C3=C(O)c4c(O)ccc(Br)c4CC3CC12 (centres unmarked) [101057-85-6, 7-bromo-6-deoxy-6-demethyl tetracycline]
- inducing activity (GUS reporter gene) [2]: moderate inducer
